Where two headings read alike, the source gives them in different places.
Columns and labels:
Format in all cases: cell-based
[1] = test system: IIIB strain of HIV-1 (WT); assay: Anti-HIV-1 activity, protection of infected MT-2 cells; conditions: for EC50: Human immunodeficiency virus 1, IIIB; for anti-HIV-1 activity in words: wild-type HIV-1, MT-2 cells
[2] = test system: HIV-1 K103N/Y181C variant strain; assay: Anti-HIV-1 activity in MT-2 cells, K103N/Y181C variant strain; conditions: Human immunodeficiency virus 1, MT2, read-out: K103N/Y181C EC50
[3] = test system: HIV-1 Y181C variant strain; assay: Anti-HIV-1 activity in MT-2 cells, Y181C variant strain; conditions: Human immunodeficiency virus 1, MT2, read-out: Y181C EC50
[4] = MT2, read-out: Anti-HIV-1 Activity (EC50)

**Q.** For `Clc1cccc(Cl)c1Cc1nnc(Nc2ccc(COCc3ccoc3)cc2)o1` [Compound 1g], which EC50 [1, 4] is on record?
**A.** > 21000 nM

**Q.** How did the EC50 ([1]; MT2, read-out: WT EC50) turn out when `O=C1Nc2ccc(Cl)cc2[C@@](C#CC2CC2)(C(F)(F)F)O1` [evafirenz, reference compound] was run?
**A.** 2 nM

**Q.** With `Fc1cccc(F)c1Cc1cnc(Nc2ccc(-c3cccnc3)c(Cl)c2)o1` [Compound 3v] as the compound, how does the “anti-HIV-1 activity in words” value [1] read?
**A.** good activity

**Q.** And the EC50 [2]?
**A.** > 2100 nM

**Q.** How did the EC50 [3] turn out when `N#Cc1ccc(Nc2ncc(Cc3c(F)cccc3F)o2)cc1` [Compound 3p] was run?
**A.** > 2700 nM

**Q.** `Clc1cccc(Cl)c1Cc1nnc(Nc2ccc(COCc3ccsc3)cc2)o1` [Compound 1h] was tested. Which EC50 [1, 4] did it give?
**A.** > 21000 nM

**Q.** `OCc1ccc(Nc2ncc(Cc3c(F)cccc3F)o2)cc1Cl` [Compound 3m] was tested. Which “enhancement of WT activity by addition of the chlorine (factor)” value ([1]; 3m versus 3i) did it give?
**A.** 15

**Q.** What does the source list for `[O-][n+]1ccc(OCc2ccc(Nc3ncc(Cc4c(F)cccc4F)o3)cc2Cl)cc1` [Compound 3o]?
**A.** EC50 [3]: > 2700 nM; EC50 [2]: > 2100 nM

**Q.** With `Cc1ccnc2c1NC(=O)c1cccnc1N2C1CC1` [nevirapine, reference compound] as the compound, how does the EC50 [2] read?
**A.** > 2100 nM

**Q.** How did the EC50 [2] turn out when `N#Cc1ccc(Nc2ncc(Cc3c(F)cccc3F)o2)cc1Cl` [Compound 3q] was run?
**A.** > 2100 nM

**Q.** What does the source list for `Clc1cccc(Cl)c1Cc1nnc(Nc2ccc(COCc3ccccc3)cc2)o1` [Compound 1b]?
**A.** EC50 [1, 4]: > 21000 nM; anti-HIV-1 activity in words [1]: inactivity

**Q.** `Fc1cccc(F)c1Cc1cnc(Nc2ccc(-c3ccncc3)c(Cl)c2)o1` [Compound 3u] was tested. Which “anti-HIV-1 activity in words” value [1] did it give?
**A.** good activity
